Test results published in the NIST ThermoML archive (doi:10.1021/acs.jced.7b00722).

Key:
[1] = refractive index (Na D-line) (dimensionless); wn = mass fraction of the nth substance listed; conditions: 298.15 K, 100 kPa, Liquid, Standard Abbe refractometry
[2] = wn = mass fraction of the nth substance listed; conditions: 298.15 K, 100 kPa, Liquid; for viscosity: Falling or rolling sphere viscometry; for mass density: Vibrating tube method
[3] = 298.15 K; 100 kPa; Liquid; Falling or rolling sphere viscometry
[4] = refractive index (Na D-line) (dimensionless); conditions: 298.15 K; 100 kPa; Liquid; Standard Abbe refractometry

O=C([O-])[C@H](O)[C@@H](O)C(=O)[O-].[K+].[K+] [dipotassium L-tartrate] + O
Conditions | mass density, [2] [kg/m3] | refractive index, [1] | viscosity, [2] [mPa·s]
w1 = 0.02 | 1006 | 1.3345 | 0.929
w1 = 0.04 | 1019.6 | 1.3374 | 0.965
w1 = 0.06 | 1033.3 | 1.3403 | 0.998
w1 = 0.08 | 1046.9 | 1.3432 | 1.04
w1 = 0.1 | 1060.6 | 1.3461 | 1.09
w1 = 0.15 | 1094.7 | 1.3533 | 1.191
w1 = 0.2 | 1128.9 | 1.3606 | 1.313
w1 = 0.25 | 1163 | 1.3678 | 1.46
w1 = 0.3 | 1197.1 | 1.375 | 1.59
w1 = 0.4 | 1265.4 | 1.3895 | 1.91

O [water]
Conditions | refractive index | viscosity [mPa·s]
[3] | – | 0.894
[4] | 1.3327 | –

O [water] + O=C([O-])[C@H](O)[C@@H](O)C(=O)[O-].[K+].[K+]
w2 = 0
Conditions | refractive index | viscosity [mPa·s]
[1] | 1.3327 | –
[2] | – | 0.894
